Assay results from the supplement of paper PMC10307832.

Columns and labels:
Assay in all cases: relative viability (nuclei count vs DMSO), 5 days (fraction); higher = more cells survive
Carfilzomib = compound: CC(C)C[C@H](NC(=O)[C@H](CCc1ccccc1)NC(=O)CN1CCOCC1)C(=O)N[C@@H](Cc1ccccc1)C(=O)N[C@@H](CC(C)C)C(=O)[C@@]1(C)CO1 [Carfilzomib]
Procedure, shortened: (§1)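 Cells of lung cancer lines were placed in 1536-well plates and kept overnight at 37 °C. Pinning then delivered five library-drug doses (not always all listed), spaced by √10, onto plates anchored with vehicle, and the cells were left 5 days without changing medium. One step fixed, permeabilised and stained them with Hoechst, and MetaXpress counted nuclei in 4× images. Viability, as a median over plates, is treated-well nuclei divided by vehicle-well nuclei, with acceptance only at control CV below 25% and at least one doubling.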

Crizotinib = compound: C[C@@H](Oc1cc(-c2cnn(C3CCNCC3)c2)cnc1N)c1c(Cl)ccc(F)c1Cl [Crizotinib]
Procedure, shortened: as §1

Olaparib = compound: O=C(c1cc(Cc2n[nH]c(=O)c3ccccc23)ccc1F)N1CCN(C(=O)C2CC2)CC1 [Olaparib]
Procedure, shortened: as §1

| Cell Line | relative viability (Carfilzomib; 0.001 µM) | relative viability (Carfilzomib; 0.003162 µM) | relative viability (Carfilzomib; 0.01 µM) | relative viability (Carfilzomib; 0.03162 µM) | relative viability (Carfilzomib; 0.1 µM) | relative viability (Crizotinib; 0.01 µM) | relative viability (Crizotinib; 0.03162 µM) | relative viability (Crizotinib; 0.1 µM) | relative viability (Crizotinib; 0.3162 µM) | relative viability (Crizotinib; 1 µM) | relative viability (Crizotinib; 1 µM, anchor plate) | relative viability (Olaparib; 0.08 µM) | relative viability (Olaparib; 0.253 µM) | relative viability (Olaparib; 2.53 µM) | relative viability (Olaparib; 8 µM) | relative viability (Olaparib; 8 µM, anchor plate) |
| --- | --- | --- | --- | --- | --- | --- | --- | --- | --- | --- | --- | --- | --- | --- | --- | --- |
| IA-LM | 0.884 | 0.879 | 0.94 | 0.107 | 0.0275 | 0.972 | 0.959 | 1.03 | 0.872 | 0.888 | 0.79 | 1.04 | 0.889 | 0.958 | 0.79 | 0.853 |
| LC-2-ad | 1.04 | 1.16 | 1.03 | 0.473 | 0.226 | 0.921 | 1.02 | 1.02 | – | – | 0.458 | 1.09 | 0.89 | 0.943 | 0.866 | 0.697 |
| LCLC-97TM1 | 0.907 | 1.07 | 0.999 | 0.368 | 0.0609 | 0.902 | 1.1 | 1 | 0.727 | 0.993 | 0.338 | 1.02 | 0.938 | 0.904 | 0.913 | 0.374 |
| LCLC-103H | 0.923 | 0.974 | 0.998 | 0.984 | 0.459 | 0.906 | 1.02 | 1.07 | 0.991 | 1 | 1.01 | 1.04 | 0.893 | 1 | 0.862 | 0.749 |
| LK-2 | 0.937 | 1.31 | 0.96 | 0.205 | 0.201 | 0.972 | 0.87 | 0.943 | 1.03 | – | – | 1.19 | 0.896 | 1.09 | 1.01 | 0.803 |
| LOU-NH91 | 0.962 | 1.08 | 0.745 | 0.314 | 0.309 | 0.945 | 0.905 | 1.09 | 0.949 | 0.985 | 0.729 | 1.16 | 0.943 | 1.01 | 0.962 | 0.914 |
| LU99A | 0.991 | 1.06 | 0.982 | 0.893 | 0.433 | 0.894 | 1.03 | – | 0.795 | 0.969 | 0.547 | 0.98 | 0.837 | 0.776 | 0.532 | 0.266 |
| LXF-289 | 0.992 | 1.04 | 1.02 | 0.371 | 0.104 | 0.967 | 1.03 | 1.08 | 0.844 | 1.01 | 0.809 | 1.12 | 0.979 | 1.1 | 1.03 | 1.07 |
| NCI-H23 | 0.847 | 1.14 | 0.856 | 0.172 | 0.161 | 0.808 | 1.1 | 1.04 | – | 0.904 | 0.546 | 1.23 | 0.84 | 0.804 | 0.517 | 0.344 |
| NCI-H322M | 0.911 | 1.07 | 1.04 | 0.961 | 0.376 | 0.778 | – | 1 | 0.922 | 0.955 | 0.93 | 1.06 | 0.888 | 0.98 | 0.815 | 0.745 |
| NCI-H358 | 0.926 | 1.03 | 0.953 | 0.154 | 0.133 | 0.89 | 0.963 | 0.902 | 0.868 | 0.949 | 0.574 | 0.969 | 0.894 | 0.934 | 0.849 | 0.63 |
| NCI-H441 | 1.2 | 1.19 | 0.432 | 0.151 | 0.118 | 0.99 | 0.941 | 0.947 | – | 1.02 | 0.726 | 1.13 | 1 | 0.942 | 0.76 | 0.525 |
| NCI-H460 | 0.929 | 1.01 | 1 | 0.739 | 0.0357 | 0.961 | 0.999 | 0.996 | 0.991 | 1.03 | 0.905 | 1.08 | 0.915 | 0.895 | 0.657 | 0.441 |
| NCI-H520 | 0.994 | 1.06 | 0.782 | 0.187 | 0.199 | 0.895 | 0.897 | 0.894 | 0.836 | 0.915 | 0.764 | 1.02 | 0.856 | 0.85 | 0.609 | 0.347 |
| NCI-H522 | 0.889 | 1.11 | 1.01 | 0.734 | 0.375 | 0.919 | 0.954 | 0.888 | – | 0.893 | – | 1.08 | 1.01 | 0.973 | 0.703 | 0.679 |
| NCI-H596 | 0.951 | 0.949 | 0.95 | 0.697 | 0.222 | 1.02 | 1.04 | 1.09 | 0.98 | 0.967 | 0.989 | 0.987 | 0.86 | 0.919 | 0.792 | 0.711 |
| NCI-H647 | 0.873 | 1.06 | 0.978 | 0.0791 | 0.038 | – | 1.01 | 1.01 | 0.783 | – | 1.07 | 1.08 | 0.862 | 0.97 | 0.879 | 0.542 |
| NCI-H650 | 0.811 | 1.03 | 0.886 | 0.751 | 0.196 | 1.07 | 0.97 | 1.13 | 0.697 | 1.03 | 0.705 | 1.13 | 0.872 | 0.801 | 0.744 | 0.378 |
| NCI-H661 | 0.986 | 1.05 | 1.02 | 0.995 | 0.535 | 0.933 | 0.95 | 0.945 | 1.06 | 1 | 0.993 | 1.02 | 0.924 | 0.925 | 0.836 | 0.753 |
| NCI-H727 | 0.886 | 0.998 | 1.12 | 0.698 | 0.423 | 0.693 | 1.03 | 1 | 0.779 | 1.17 | 0.868 | 1.04 | 0.753 | 0.783 | 0.736 | 0.741 |
| NCI-H838 | 0.982 | 1.05 | 0.951 | 0.875 | 0.151 | 0.86 | – | 0.972 | 0.888 | 0.928 | 0.852 | 1.02 | 0.903 | 0.955 | 0.945 | 0.767 |
| NCI-H1299 | 1.03 | 1.02 | 1.02 | 0.577 | 0.158 | 0.976 | 1.02 | 1.02 | – | 0.976 | 0.932 | 1.08 | 0.981 | 1.01 | 0.995 | 0.968 |
